Measured values: patent US9724337B2, “AG-205 for the treatment of breast cancer” (University of Kentucky Research Foundation, priority 2009, dated 2017)

Legend:
A431 = test: AG-205 viability assay in A431 cells; type: cell-based; conditions: A431, epitheloid, serum-starved, EGFR wild-type
MDA-MB-231 = test: AG-205 viability assay in MDA-MB-231 cells; type: cell-based; conditions: MDA-MB-231, breast, serum-starved, EGFR wild-type
Protocol: (A) Pgrmc1 (SEQ ID NO: 7) shares homology with AtMAPR2 (SEQ ID NO: 8) (underlined residues), which was the target for a screen for small molecule ligands. The putative heme-binding Tyr106 and Tyr112 are indicated with black boxes. (B) The molecular structure of AG-205 includes multiple aromatic components. (C) Spectroscopic scan of Pgrmc1 with vehicle control compared with vehicle plus 50 µM AG-205. The decrease in relative absorbance at 400 nm is consistent with an AG-205-induced change in the spectral properties of Pgrmc1-heme. The scan is representative of four separate scans using different Pgrmc1 protein preparations. […] Percent viability was determined by cell counting, and “% viability” refers to the cell number relative to the untreated control.
Proliferation, anchorage-independent growth and migration assays. […] Following the harvest of the final time point, the cells from each time point were counted using a Bright-line hemocytometer (Hausser Scientific).
(§1) MTT viability assays were performed as described previously. […] The cells were then incubated with 0.5 mg/ml of 3-[4,5-dimethylthiazol-2-y]-2,5-diphenyltetrazolium bromide for 1.5 hours, at which time the media was removed, the precipitated crystals were dissolved in dimethyl sulfoxide, and the absorbance at 590 nm was measured using a Bio-Tek μQuant spectrophotometer.

MDA-MB-468 cells = test: Viability / proliferation of MDA-MB-468 cells; type: cell-based, human
Protocol: (§2) Tissue culture. MDA-MB-468 cells were a kind gift from Dr. Rina Plattner of the University of Kentucky and were maintained in medium consisting of Dulbecco's Modified Eagle Medium containing 10% serum supreme (Fisher) and antibiotics. Cells were grown at 37° C. in 5% CO2 in air. A549 and HCC827 lung cancer cells, as well as SK-Br-3 breast cancer cells were obtained from the ATCC (American Type Culture Collection) and were grown under the same conditions. The H1650 lung cancer cell line was a kind gift from Dr. Heinz Kohler of the University of Kentucky. The Pgrmc1 ligand AG-205 was purchased from Timtec, Inc. The EGFR inhibitor AG1478 was from Biomol, Inc. and was used at a concentration range of 0.8-40 μM.
(§3) Proliferation, anchorage-independent growth and migration assays. For growth curves, cells were plated in 24 well dishes and grown in 10% serum-containing medium. At various times, the cells were harvested with trypsin and fixed with formaldehyde added to a final concentration of 3.7%. Following the harvest of the final time point, the cells from each time point were counted using a Bright-line hemocytometer (Hausser Scientific).
(§4) MTT viability assays were performed as described previously. Briefly, cells were plated in 96-well tissue culture dishes and grown in various media with different drug doses. The cells were then incubated with 0.5 mg/ml of 3-[4,5-dimethylthiazol-2-y]-2,5-diphenyltetrazolium bromide for 1.5 hours, at which time the media was removed, the precipitated crystals were dissolved in dimethyl sulfoxide, and the absorbance at 590 nm was measured using a Bio-Tek μQuant spectrophotometer.

A549 cells = test: Viability of A549 cells; type: cell-based, human
Protocol: (A) Pgrmc1 (SEQ ID NO: 7) shares homology with AtMAPR2 (SEQ ID NO: 8) (underlined residues), which was the target for a screen for small molecule ligands. The putative heme-binding Tyr106 and Tyr112 are indicated with black boxes. (B) The molecular structure of AG-205 includes multiple aromatic components. (C) Spectroscopic scan of Pgrmc1 with vehicle control compared with vehicle plus 50 µM AG-205. The decrease in relative absorbance at 400 nm is consistent with an AG-205-induced change in the spectral properties of Pgrmc1-heme. The scan is representative of four separate scans using different Pgrmc1 protein preparations. The lower scan is a comparison of purified Pgrmc1 without and with the vehicle control (DMSO). Panels D (A549 cells) and E (MDA-MB-231 cells) are viability assays of cells maintained in 0.1% serum (solid line) or 10% serum (dashed line) and treated with increasing doses of AG-205. Percent viability was determined by cell counting, and “% viability” refers to the cell number relative to the untreated control.
as §2, §3, §4

H157 = test: AG-205 viability assay in H157 cells; type: cell-based; conditions: H157, lung, serum-starved, EGFR wild-type
Protocol: as §3, §4

H358 = test: AG-205 viability assay in H358 cells; type: cell-based; conditions: H358, lung, serum-starved, EGFR wild-type
Protocol: as §3, §4

H1650 = test: AG-205 viability assay in H1650 cells; type: cell-based
Protocol: as §2
as §3, with “At various times, the cells were harvested with trypsin and fixed with formaldehyde added to a final concentration of 3.7%.” left out
as §1

HCC827 = test: AG-205 viability assay in HCC827 cells; type: cell-based; conditions: HCC827, lung, serum-starved, EGFR ΔE746-A750
Protocol: as §2
as §3, with “At various times, the cells were harvested with trypsin and fixed with formaldehyde added to a final concentration of 3.7%.” left out
as §1

In the case of `Cc1ccc2c(c1)[C@H]1CN(C)CC[C@H]1N2C(=O)CSc1nnnn1-c1ccc(Cl)cc1` [AG-205], the IC50 (A431) is reported as 8 µM, the IC50 (MDA-MB-231) is reported as 18 µM and the IC50 (MDA-MB-468 cells; MDA-MB-468, breast, serum-starved, EGFR wild-type, read-out: IC50 values for AG-205, Serum-starved) is reported as 12 µM. The cell viability (MDA-MB-468 cells; MDA-MB-468 cells, 20 μM dose, 72-96 hours after treatment) was “marked loss of viability”, the “viability under normal culture conditions” value (MDA-MB-468 cells; MDA-MB-468 cells, ligand abundant (10% serum)) was “slight increase in viability” and the “cell growth inhibition” value (MDA-MB-468 cells; MDA-MB-468 cells, wild-type EGFR) was “efficiently inhibited cell growth”. For the same molecule, the “growth inhibitory activity depending on culture conditions” value (MDA-MB-468 cells; low serum versus 10% serum, P=0.0006 for MDA-MB-468 at 20 μM) was “killing cells grown in low serum conditions but not 10% serum”, the IC50 (A549 cells; A549, lung, serum-starved, EGFR wild-type, read-out: IC50 values for AG-205, Serum-starved) was 15 µM and the cell viability (A549 cells; A549 cells, 20 μM dose, 72-96 hours after treatment) was “marked loss of viability”. For the same molecule, the “decrease in viability / cells killed” value (A549 cells; A549 cells, single agent) was 47%, the “cell growth inhibition” value (A549 cells; A549 cells, wild-type EGFR) was “efficiently inhibited cell growth” and the “toxicity in Pgrmc1-inhibited A549 cells” value (A549 cells; Pgrmc1-inhibited versus control A549 cells, after 36 hours, P=0.0001) was “decreased toxicity”. For the same molecule, the “viability of Pgrmc1-hbd-expressing cells” value (A549 cells; cells expressing heme binding-deficient mutant, increasing doses of AG-205, cell counting) was “partially reversed the loss of viability”, the IC50 (H157) was 10 µM and the IC50 (H358) was 12 µM. The IC50 (H1650; H1650, lung, serum-starved, EGFR ΔE746-A750) was greater than 100 µM, the “sensitivity to growth inhibition” value (H1650; H1650 cells, ΔE746-A750 EGFR) was “relatively insensitive” and the IC50 (HCC827) was greater than 100 µM.
